# Results from US11752169B2, “Treatment of pain with polysulfated polysaccharides” (PARADIGM BIOPHARMACEUTICALS LTD., priority 2018, dated 2023).
# “Also recorded” adds a separate entry of the source.
# Key:
# COX2 mRNA = test: real-time RT-PCR for COX2 mRNA in KOA osteocyte-like cultures; assay type: cell-based, human
# Experimental: Cryopreserved cells from each donor (all at passage 0 or 1) were thawed and cultured for 10d in T75 cm^2 tissue culture flasks. Once confluent, cells were removed by collagenase/dispase digestion, washed by centrifugation, counted and adjusted to 5×10^5 cells/mL. Cells were then seeded into either 12-well tissue culture trays or into 8-well chamber slides, at 1×10^5 and 2×10^4 cells/well, respectively. After 24 h, media were replaced with osteogenic differentiation medium, consisting of αMEM, 5% v/v foetal calf serum (FCS), 1.8 mM potassium dihydrogen phosphate (KH2PO4), 100 μM Ascorbate-2-phosphate (As2P), 10 mM HEPES, 10^−8 M Dexamethasone and 0.2 mM L-Glutamine. During the differentiation process, samples were collected at days 3, 14 and 28 in Trizol reagent for total RNA preparation and gene expression analysis (see below). […]
# Following three days of pre-treatment of osteocyte-like cultures with PPS and a further 48 h treatment period, total RNA was isolated for the purposes of analysing gene expression using real-time RT-PCR. While the quality of the RNA isolated from all cultures appeared to be high, as adjudged by Nanodrop micro-spectrophotometry showing the ratio of absorbance at 260 nm/280 nm generally being between 1.9 and 2.0, there was a consistent inability to generate complementary DNA (cDNA) from any samples exposed to 5 or 50 μg/mL PPS, except in one or two samples. […]
# NGF = NGF immunostaining / confocal microscopy of osteocytes freshly isolated from human KOA bone; assay type: cell-based; settings: osteocyte-enriched fractions of KOA bone digests, 24 h, qualitative (FIG. 22)
# Experimental: FIG. 22. NGF expression in isolated human osteocytes. Osteocyte-enriched fractions of sequential human trabecular bone digests were cultured for 24 h either untreated (A), treated with rhTNFα (B), PPS (0.5 μg/mL) (C) or a combination of both (D), and then examined by confocal microscopy for NGF immunoreactivity. Control cells were also immunostained using an isotype-matched negative control primary antibody (E). Images are representative of data obtained from two individual donors. Scale bars in each image represent 100 μm.
# Cell seeded in 8-well chamber slides and differentiated for 28 days or freshly digested from bone were either untreated or treated with rhTNFα (1 ng/mL), PPS (50 μg/mL; ‘PPS50’) or PPS50+rhTNFα. Following differentiation, medium was removed and all wells rinsed with PBS (pH 7.4, Gibco) a total of three times. Cells were then fixed with 100 μL of Histochoice (Sigma-Aldrich) tissue fixative for 1 hour at room temperature. After fixation, wells were rinsed twice with distilled H2O and stored at 4° C. until staining. Cells were blocked with 50 μL of blocking buffer (5% v/v normal rabbit serum in 1×PBS) for 20 minutes at room temperature in a humid chamber. Cells were then rinsed with wash buffer (0.1% v/v normal rabbit serum in PBS) three times. […]
substance,measurement,setting,value
Sodium Pentosan Polysulfate [PPS],"COX2 mRNA expression, PPS alone",COX2 mRNA; PPS 1 μg/mL (FIG. 18),completely inhibited
same,"COX2 mRNA expression, PPS in combination with rhTNFα",COX2 mRNA; PPS 1 μg/mL + rhTNFα 1 ng/mL (FIG. 18),completely inhibited
same,"NGF expression (immunostaining), combination of rhTNF-α and PPS",NGF; PPS 0.5 μg/mL + rhTNFα,downregulated; also recorded: qualitatively less staining
same,"NGF expression (immunostaining), PPS alone vs control",NGF; PPS 0.5 μg/mL,qualitatively greater
